Results as given in ChEMBL document CHEMBL4420071, “Method for treating skin with retinoids and retinoid boosters” (2013).

How the values were obtained:
Rattus norvegicus [1] = species: Rattus norvegicus; test: Inhibition of retinal reductase in Sprague-Dawley rat liver microsomes at 100 uM using all-trans retinaldehyde and NADPH by HPLC analysis relative to control
Homo sapiens [2] = species: Homo sapiens; test: Inhibition of transglutaminase in human keratinocytes assessed as mean transglutaminase activity level at 9.0 10^-3M in presence of 10 uM retinal relative to retinal alone; type: cell-based; set-up: scale not given: the % may be the effect or the level left
Homo sapiens [3] = species: Homo sapiens; test: Inhibition of transglutaminase in human keratinocytes assessed as mean transglutaminase activity level at 3.0 10^-3M in presence of 10 uM retinal relative to retinal alone; type: cell-based; set-up: scale not given: the % may be the effect or the level left
Homo sapiens [4] = species: Homo sapiens; test: Inhibition of transglutaminase in human keratinocytes assessed as mean transglutaminase activity level at 1.0 10^-3M in presence of 10 uM retinal relative to retinal alone; type: cell-based; set-up: scale not given: the % may be the effect or the level left
Homo sapiens [5] = species: Homo sapiens; test: Inhibition of transglutaminase in human keratinocytes assessed as mean transglutaminase activity level at 1.1 10^-4M in presence of 10 uM retinal relative to retinal alone; type: cell-based; set-up: scale not given: the % may be the effect or the level left
Homo sapiens [6] = species: Homo sapiens; test: Inhibition of transglutaminase in human keratinocytes assessed as mean transglutaminase activity level at 3.73 10^-4M in presence of 10 uM retinal relative to retinal alone; type: cell-based; set-up: scale not given: the % may be the effect or the level left
Homo sapiens [7] = species: Homo sapiens; test: Inhibition of transglutaminase in human keratinocytes assessed as mean transglutaminase activity level at 1.23 10^-5M in presence of 10 uM retinal relative to retinal alone; type: cell-based; set-up: scale not given: the % may be the effect or the level left
Homo sapiens [8] = species: Homo sapiens; test: Inhibition of transglutaminase in human keratinocytes assessed as mean transglutaminase activity level at 4.1 10^-5M in presence of 10 uM retinal relative to retinal alone; type: cell-based; set-up: scale not given: the % may be the effect or the level left
Homo sapiens [9] = species: Homo sapiens; test: Inhibition of transglutaminase in human keratinocytes assessed as mean transglutaminase activity level at 8.2 10^-6M in presence of 10 uM retinal relative to retinal alone; type: cell-based; set-up: scale not given: the % may be the effect or the level left
Homo sapiens [10] = species: Homo sapiens; test: Inhibition of transglutaminase in human keratinocytes assessed as mean transglutaminase activity level at 1.65 10^-7M in presence of 10 uM retinal relative to retinal alone; type: cell-based; set-up: scale not given: the % may be the effect or the level left
Homo sapiens [11] = species: Homo sapiens; test: Inhibition of transglutaminase in human keratinocytes assessed as mean transglutaminase activity level at 3.29 10^-7M in presence of 10 uM retinal relative to retinal alone; type: cell-based; set-up: scale not given: the % may be the effect or the level left
Homo sapiens [12] = species: Homo sapiens
Rattus norvegicus [13] = species: Rattus norvegicus; test: Activation of retinol dehydrogenase in Sprague-Dawley rat liver microsomes assessed as increase in enzyme activity at 100 uM using all-trans retinol and NADP by HPLC analysis relative to control
Homo sapiens [14] = species: Homo sapiens; test: Inhibition of transglutaminase in human keratinocytes assessed as mean transglutaminase activity level at 3 10^-5M in presence of 10 uM retinal relative to retinal alone; type: cell-based; set-up: scale not given: the % may be the effect or the level left
Homo sapiens [15] = species: Homo sapiens; test: Inhibition of transglutaminase in human keratinocytes assessed as mean transglutaminase activity level at 1 10^-5M in presence of 10 uM retinal relative to retinal alone; type: cell-based; set-up: scale not given: the % may be the effect or the level left
Homo sapiens [16] = species: Homo sapiens; test: Inhibition of transglutaminase in human keratinocytes assessed as mean transglutaminase activity level at 3.3 10^-6M in presence of 10 uM retinal relative to retinal alone; type: cell-based; set-up: scale not given: the % may be the effect or the level left
Homo sapiens [17] = species: Homo sapiens; test: Inhibition of transglutaminase in human keratinocytes assessed as mean transglutaminase activity level at 1.1 10^-6M in presence of 10 uM retinal relative to retinal alone; type: cell-based; set-up: scale not given: the % may be the effect or the level left
Homo sapiens [18] = species: Homo sapiens; test: Inhibition of transglutaminase in human keratinocytes assessed as mean transglutaminase activity level at 3.73 10^-7M in presence of 10 uM retinal relative to retinal alone; type: cell-based; set-up: scale not given: the % may be the effect or the level left
Homo sapiens [19] = species: Homo sapiens; test: Inhibition of transglutaminase in human keratinocytes assessed as mean transglutaminase activity level at 1.23 10^-7M in presence of 10 uM retinal relative to retinal alone; type: cell-based; set-up: scale not given: the % may be the effect or the level left
Homo sapiens [20] = species: Homo sapiens; test: Inhibition of transglutaminase in human keratinocytes assessed as mean transglutaminase activity level at 4.1 10^-8M in presence of 10 uM retinal relative to retinal alone; type: cell-based; set-up: scale not given: the % may be the effect or the level left
Homo sapiens [21] = species: Homo sapiens; test: Inhibition of transglutaminase in human keratinocytes assessed as mean transglutaminase activity level at 8.2 10^-8M in presence of 10 uM retinal relative to retinal alone; type: cell-based; set-up: scale not given: the % may be the effect or the level left
Homo sapiens [22] = species: Homo sapiens; test: Inhibition of transglutaminase in human keratinocytes assessed as mean transglutaminase activity level at 1.65 10^-9M in presence of 10 uM retinal relative to retinal alone; type: cell-based; set-up: scale not given: the % may be the effect or the level left
Homo sapiens [23] = species: Homo sapiens; test: Inhibition of transglutaminase in human keratinocytes at 1 uM relative to control; type: cell-based
Homo sapiens [24] = species: Homo sapiens; test: Inhibition of transglutaminase in human keratinocytes in presence of retinal relative to retinal alone; type: cell-based; settings: concentration not given here
[25] = molecular target: T1, Diacylglycerol O-acyltransferase 1 (Bos taurus) (UniProt Q8MK44); settings: at 100 µM;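 further: ARAT activity in bovine RPE microsomes with retinol as substrate and dilauroyl phosphatidylcholine present, 5 min incubation, HPLC readout, inhibition expressed versus control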
T1 sequence (whole entry): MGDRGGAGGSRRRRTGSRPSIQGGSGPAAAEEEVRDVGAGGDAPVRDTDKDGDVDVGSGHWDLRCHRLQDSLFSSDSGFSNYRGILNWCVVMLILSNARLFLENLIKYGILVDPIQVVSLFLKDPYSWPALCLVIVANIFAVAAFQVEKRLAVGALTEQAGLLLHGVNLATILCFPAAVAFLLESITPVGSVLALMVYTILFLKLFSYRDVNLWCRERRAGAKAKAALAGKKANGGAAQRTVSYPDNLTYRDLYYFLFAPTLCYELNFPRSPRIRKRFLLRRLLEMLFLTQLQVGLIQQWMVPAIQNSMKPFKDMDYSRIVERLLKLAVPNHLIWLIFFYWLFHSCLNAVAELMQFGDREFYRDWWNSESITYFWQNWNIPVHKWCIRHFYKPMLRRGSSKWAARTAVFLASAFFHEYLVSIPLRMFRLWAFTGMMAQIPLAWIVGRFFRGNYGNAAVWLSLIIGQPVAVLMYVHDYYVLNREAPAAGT
Description: Inhibition of ARAT in bovine RPE microsomes at 100 uM using retinol substrate in presence of dilauroyl-phosphatidyl choline incubated for 5 mins by HPLC analysis relative to control

[26] = molecular target: T2, Lecithin retinol acyltransferase (Bos taurus) (UniProt Q9BGL2); settings: at 100 µM;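 further: bovine retinal pigment epithelium microsomes given retinol plus palmitoyl-CoA, 5 min reaction, ester formation read by HPLC, inhibition expressed versus untreated control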
T2 sequence (whole entry): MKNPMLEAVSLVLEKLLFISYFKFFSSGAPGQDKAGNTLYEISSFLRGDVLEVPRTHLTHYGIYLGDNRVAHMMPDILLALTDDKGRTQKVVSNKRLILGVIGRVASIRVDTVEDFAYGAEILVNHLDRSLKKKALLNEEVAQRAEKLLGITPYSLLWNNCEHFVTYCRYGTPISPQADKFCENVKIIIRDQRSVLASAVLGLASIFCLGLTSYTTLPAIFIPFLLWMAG
Description: Inhibition of LRAT in bovine RPE microsomes at 100 uM using retinol substrate in presence of Palmitoyl-CoA incubated for 5 mins by HPLC analysis relative to control

inhibition (Rattus norvegicus [1]) [%]	Activity (Homo sapiens [2]) [%]	Activity (Homo sapiens [3]) [%]	Activity (Homo sapiens [4]) [%]	Activity (Homo sapiens [5]) [%]	Activity (Homo sapiens [6]) [%]	Activity (Homo sapiens [7]) [%]	Activity (Homo sapiens [8]) [%]	Activity (Homo sapiens [9]) [%]	Activity (Homo sapiens [10]) [%]	Activity (Homo sapiens [11]) [%]	SMILES	IC20 (Homo sapiens [12])	also measured
54	-11	-5.7	-7.5	-23	68	94.9	65.9	119	77	98	CC/C=C\C/C=C\C/C=C\CCCCCCCC(=O)O	1.21 ×10⁻⁴ M	
62	-6	0.1	-16.4	4.4	79.2	62.6	76.8	146	106	60.2	CCCCC/C=C\C/C=C\CCCCCCCC(=O)O	8.95 ×10⁻⁵ M	
											CCCCCCCC/C=C\CCCCCCCCCCCCCC(=O)N[C@@H](COP(=O)([O-])OCC[N+](C)(C)C)[C@H](O)/C=C/CCCCCCCCCCCCC		Activity (Rattus norvegicus [13]): 26%; Activity (Homo sapiens [14]): 45%; Activity (Homo sapiens [15]): 77.8%; Activity (Homo sapiens [16]): 76.4%; Activity (Homo sapiens [17]): 98.8%; Activity (Homo sapiens [18]): 91.6%; Activity (Homo sapiens [19]): 70%; Activity (Homo sapiens [20]): 74.6%; Activity (Homo sapiens [21]): 115%; Activity (Homo sapiens [22]): 68.4%
											CC1=C(/C=C/C(C)=C/C=C/C(C)=C/C=O)C(C)(C)CCC1		inhibition (Homo sapiens [23]): 55%
											CCCCCCCCCCCC(=O)NCCO		inhibition (Homo sapiens [24]): 11%; inhibition [25]: 13%; inhibition [26]: 34%
